The record followed here is patent publication US9573972B2, “Nurotoxic sterol glycosides” (priority 2008, dated 2017).

The subject of the data set is male CD-1 mice. The data set is described as follows: Gait analysis (Digigait), SG-fed mice. The class given is in vivo, mouse. The conditions noted are these: SG-fed vs control. The text has this: Five-month old male CD-1 mice (30.1-35.7 g, 7.5 cm-8.8 cm) were purchased from Charles River (Wilmington, Mass.). Adult mice were chosen to mimic the mean age of onset of ALS-PDC (Kurland, L. T. (1988a) Trends Neurosci. 11, 51-4; Kurland, L. T., et al. (1994) Amyotrophic lateral sclerosis-parkinsonism-dementia complex on Guam: epidemiologic and etiological perspectives. 109-131). Thirty mice for the SG study were randomly divided into 2 groups (14 control and 16 experimental animals). All animals were housed singly in a virus-free barrier facility in a room maintained at 22° C. under a 12 hour light/dark cycle. The mice were provided ad libitum access to food and water.
The synthetic SG was mixed with finely ground Purina Chow mouse pellets (Mouse Diet™, Purina) to create the experimental pellets with a SG content of 1000 μg per pellet. Dry materials were blended with a sterile silicon spatula. For every 5 g of standard feed, 2.5 mL of doubly-distilled water (dd)H2O was added and the dough was kneaded and round up into pellets. A single sterol glucoside containing pellet was placed in the feeding tray each morning before the addition of regular mouse chow (ad libitum). All experimental pellets were entirely consumed by the mice each day. Control mice were fed standard mouse chow pellets of identical weight with no additives. SG feeding was conducted daily for 15 weeks and mice were behaviorally monitored until sacrifice at 35 weeks (time point 1) or 52 weeks (time point 2).
Gait analysis: In order to examine spatial and temporal indices of front and hind limb stepping patterns during forward locomotion, mice were required to run on a colorless (PVC and polycarbonate), straight, level, walled motorized belt (Digigait™, treadmill motor: DC, HP; torque 451b-in, Mouse Specifics, Inc., Boston, Mass., USA) set at 30 rpm with a no-flicker light source (90-250 VAC; 25 kHZ, Mouse Specifics, Inc., Boston, Mass., USA) and camera mounted ventrally (relative to the animal) to facilitate continuous ventral plane videography (up to 150 frames per second) of activity. Gait indices were analyzed with the complementary digital imaging software (Digigait™, Mouse Specifics, Inc., Boston, Mass., USA) as per manufacturer's instructions. Briefly, the software converts “paw prints” into a digital signal and generates a temporal record of paw placement and breaks down the digital file into three main parameters: stride duration, swing duration, and stance duration. The stance duration is the period during which the paw of a limb is in contact with the belt surface. The software further subdivides the stance duration into two components: braking duration (the increase in paw contact area over a discrete time interval) and propulsion duration (the decrease in paw contact area over a discrete time interval). The swing duration is the period of time that a paw is not in contact with the belt surface. In addition to these factors, over a dozen additional characteristics, including stance factor, step-sequence pattern, propulsion, and cadence are generated to provide a spreadsheet format report of twenty-five gait indices.

With `CC[C@H](/C=C/[C@@H](C)[C@H]1CC[C@H]2[C@@H]3CC=C4C[C@@H](O[C@@H]5O[C@H](CO)[C@@H](O)[C@H](O)[C@H]5O)CC[C@]4(C)[C@H]3CC[C@]12C)C(C)C` [SG, Stigmasterol β-D-Glucopyranoside], under “Time-point 1 (35 wk)”, the Forelimb braking result is reported as “Forelimb braking (ns)”, the Forelimb propulsion result was “Forelimb propulsion (ns)”, the Forelimb stance width entry is listed as “Forelimb stance width (ns)” and the Forelimb stride length result is reported as “Forelimb stride length (ns)”. Further, for the setting “Time-point 1 (35 wk)”, the Hind limb braking result is “Hind limb braking (ns)”, the Hind limb propulsion entry is reported as “Hind limb propulsion (ns)”, the “Hind limb stance width” value is reported as “Hind limb stance width (ns)” and the “Hind limb stride frequency” value is on record as “Hind limb stride frequency (ns)”. In addition, where the note is “Time-point 1 (35 wk)”, the “Hind limb stride length” value is on record as “Hind limb stride length (ns)”. In addition, where the note is “Time-point 2 (52 wk)”, the Forelimb braking result is “Forelimb braking* (*p < 0.05)”, the Forelimb propulsion entry was “Forelimb propulsion* (*p < 0.05)”, the Hind limb braking entry is listed as “Hind limb braking* (*p < 0.05)” and the Hind limb propulsion result was “Hind limb propulsion* (*p < 0.05)”. The “Hind limb stride frequency” value (Time-point 2 (52 wk)) was “Hind limb stride frequency* (*p < 0.05)”.
